{"source": "patent US7628979B1", "about": "“Use of calco oil blue V in bait formulations for marking and controlling subterranean termites” (The United States of America as represented by the …, priority 2005, dated 2009)", "key": {"[1]": {"test_system": "Formosan subterranean termites", "assay": "In-field marking and control, bait at infested trees, sites 1 and 2", "type": "in vivo", "settings": "250 ppm bait", "from_the_text": "(§1) Formosan subterranean termite and native subterranean termite infested trees (Water Oaks and Legastrums) in New Orleans, La. were chosen for this study. Three sites were selected located at the Southern Regional Research Center campus. Site 1 was located near the service building next to an old water oak tree, site 2 was located in the compound area near ligastrum trees, and site 3 near ligastrum trees outside the compound area. Sites 1 and 2 were active with Formosan subterranean termites and site 3 with Eastern subterranean termites.\n(§2) The colored bait matrix at 250 ppm was encapsulated as described above and placed directly in the base of the trees where termites were foraging, making sure that the encapsulated colored bait matrix was covered with soil or with a piece of wood or brick on top of it to prevent desiccation. The bait was periodically inspected for consumption and termite activity. The field study started in early August and was completed by the end of the following June. During winter (December-February) termite activity decreased considerably, but by April termite activity and foraging resumed and the blue colored matrix was replaced by bait formulation containing 250 ppm of chitin synthesis inhibitors to kill the colonies. Diflubenzuron was used in 2 of the sites and chlorfluazuron was used in the remaining site."}, "[2]": {"test_system": "Eastern subterranean termites", "assay": "In-field marking and control, bait at infested trees, site 3", "type": "in vivo", "settings": "Site 3 (Ligastrum), 250 ppm bait", "from_the_text": "as §1, §2"}}}
{"compound": "O=C(NC(=O)c1c(F)cccc1F)Nc1ccc(Cl)cc1", "note": "[Diflubenzuron, 1-(4-chlorophenyl)-3-(2,6-difluorobenzoyl)urea, reference compound]", "values": [{"measurement": "Bait consumption", "setting": "[1]; Site 1 (Water Oak), day 7", "value": 0, "unit": "g"}, {"measurement": "Bait consumption", "setting": "[1]; Site 1 (Water Oak), day 14", "value": 0, "unit": "g"}, {"measurement": "Bait consumption", "setting": "[1]; Site 1 (Water Oak), day 21", "value": 0, "unit": "g"}, {"measurement": "Bait consumption", "setting": "[1]; Site 1 (Water Oak), day 27", "value": 0, "unit": "g"}, {"measurement": "Bait consumption", "setting": "[1]; Site 1 (Water Oak), day 46", "value": 0, "unit": "g"}, {"measurement": "Bait consumption", "setting": "[1]; Site 1 (Water Oak), day 56", "value": 0, "unit": "g"}, {"measurement": "Bait consumption", "setting": "[1]; Site 1 (Water Oak), day 73", "value": 0, "unit": "g"}, {"measurement": "Bait consumption", "setting": "[1]; Site 1 (Water Oak), day 83", "value": 0, "unit": "g"}, {"measurement": "Bait consumption", "setting": "[1]; Site 1 (Water Oak), day 102", "value": 0, "unit": "g"}, {"measurement": "Bait consumption", "setting": "[1]; Site 1 (Water Oak), day 159", "value": 0, "unit": "g"}, {"measurement": "Bait consumption", "setting": "[1]; Site 1 (Water Oak), day 221", "value": 0, "unit": "g"}, {"measurement": "Bait consumption", "setting": "[1]; Site 1 (Water Oak), day 251", "value": 150, "unit": "g"}, {"measurement": "Bait consumption", "setting": "[1]; Site 1 (Water Oak), day 281", "value": 300, "unit": "g"}, {"measurement": "Bait consumption", "setting": "[2]; day 7", "value": 0, "unit": "g"}, {"measurement": "Bait consumption", "setting": "[2]; day 14", "value": 0, "unit": "g"}, {"measurement": "Bait consumption", "setting": "[2]; day 21", "value": 0, "unit": "g"}, {"measurement": "Bait consumption", "setting": "[2]; day 27", "value": 0, "unit": "g"}, {"measurement": "Bait consumption", "setting": "[2]; day 46", "value": 0, "unit": "g"}, {"measurement": "Bait consumption", "setting": "[2]; day 56", "value": 0, "unit": "g"}, {"measurement": "Bait consumption", "setting": "[2]; day 73", "value": 0, "unit": "g"}, {"measurement": "Bait consumption", "setting": "[2]; day 83", "value": 0, "unit": "g"}, {"measurement": "Bait consumption", "setting": "[2]; day 102", "value": 0, "unit": "g"}, {"measurement": "Bait consumption", "setting": "[2]; day 159", "value": 0, "unit": "g"}, {"measurement": "Bait consumption", "setting": "[2]; day 221", "value": 0, "unit": "g"}, {"measurement": "Bait consumption", "setting": "[2]; day 251", "value": 150, "unit": "g"}, {"measurement": "Bait consumption", "setting": "[2]; day 281", "value": 300, "unit": "g"}]}
{"compound": "O=C(NC(=O)c1c(F)cccc1F)Nc1cc(Cl)c(Oc2ncc(C(F)(F)F)cc2Cl)c(Cl)c1", "note": "[Chlorfluazuron, 1-[3,5-dichloro-4-(3-chloro-5-trifluoromethyl-2-pyridyloxy)phenyl]-3-(2,6-difluorobenzoyl)urea, reference compound]", "values": [{"measurement": "Bait consumption", "setting": "[1]; Site 2 (Ligastrum), day 7", "value": 0, "unit": "g"}, {"measurement": "Bait consumption", "setting": "[1]; Site 2 (Ligastrum), day 14", "value": 0, "unit": "g"}, {"measurement": "Bait consumption", "setting": "[1]; Site 2 (Ligastrum), day 21", "value": 0, "unit": "g"}, {"measurement": "Bait consumption", "setting": "[1]; Site 2 (Ligastrum), day 27", "value": 0, "unit": "g"}, {"measurement": "Bait consumption", "setting": "[1]; Site 2 (Ligastrum), day 46", "value": 0, "unit": "g"}, {"measurement": "Bait consumption", "setting": "[1]; Site 2 (Ligastrum), day 56", "value": 0, "unit": "g"}, {"measurement": "Bait consumption", "setting": "[1]; Site 2 (Ligastrum), day 73", "value": 0, "unit": "g"}, {"measurement": "Bait consumption", "setting": "[1]; Site 2 (Ligastrum), day 83", "value": 0, "unit": "g"}, {"measurement": "Bait consumption", "setting": "[1]; Site 2 (Ligastrum), day 102", "value": 0, "unit": "g"}, {"measurement": "Bait consumption", "setting": "[1]; Site 2 (Ligastrum), day 159", "value": 0, "unit": "g"}, {"measurement": "Bait consumption", "setting": "[1]; Site 2 (Ligastrum), day 221", "value": 0, "unit": "g"}, {"measurement": "Bait consumption", "setting": "[1]; Site 2 (Ligastrum), day 251", "value": 450, "unit": "g"}, {"measurement": "Bait consumption", "setting": "[1]; Site 2 (Ligastrum), day 281", "value": 750, "unit": "g"}]}
